Data reported in ChEMBL document CHEMBL1201862, “PubChem BioAssay data set” (2004).
Activity calls are given as the source filed them.

How the values were obtained:
[1] = molecular target: Mu-type opioid receptor (Homo sapiens, UniProt P35372); assay: SAR Analysis of Antagonists of the MOR Receptor using an Image-Based Assay - Set 3. [Related pubchem assays (depositor defined):AID1777, AID1785, AID1786, AID1966, AID2133, AID2136, AID2284, AID2285, AID2420]; assay type: functional
[2] = molecular target: Delta-type opioid receptor (Homo sapiens, UniProt P41143); assay: SAR Analysis of Antagonists of the DOR Receptor using an Image-Based Assay - Set 3. [Related pubchem assays (depositor defined):AID1777, AID1785]; assay type: functional;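 also: U2OS cells expressing DOR1 and beta-arrestin GFP stimulated with 100 nM SNC80; imaging of GFP-tagged beta-arrestin moving into spots after receptor activation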
[3] = molecular target: T1, Kappa-type opioid receptor (Homo sapiens, UniProt P41145); assay: SAR analysis of small molecule antagonists of the kappa opioid receptor via a luminescent beta-arrestin assay - Set 3. [Related pubchem assays (depositor defined):AID1777, AID1778, AID1785, AID1786, AID1966, AID2133, AID2136, AID2285, AID2495]; assay type: functional
[4] = molecular target: T1, Kappa-type opioid receptor; assay: SAR analysis of Antagonists of the Kappa Opioid Receptor (KOR) using an Image-Based Assay - Set 3. [Related pubchem assays (depositor defined):AID1777, AID1785]; assay type: functional
[5] = molecular target: Hexokinase (Trypanosoma brucei, UniProt Q38C41); assay: Confirmation assay for inhibitors of Trypanosoma brucei hexokinase 1-Analogue-first series. [Related pubchem assays (depositor defined):AID1430, AID1632, AID2516, AID2560, AID2579, AID2600, AID449725, AID492951]; assay type: functional
[6] = molecular target: T2, Dual specificity protein phosphatase 3 (Homo sapiens, UniProt P51452); assay: SAR VHR1 absorbance Assay for In Vitro dose response studies. [Related pubchem assays (depositor defined):AID1654, AID1661, AID1878, AID1992, AID2004]
[7] = molecular target: T2, Dual specificity protein phosphatase 3; assay: SAR VHR1 Fluorescent Assay for In Vitro dose response studies. [Related pubchem assays (depositor defined):AID1654, AID1661, AID1878, AID1992, AID2004, AID2070, AID2085]; assay type: functional
[8] = molecular target: T3, Tyrosine-protein phosphatase non-receptor type 7 (Homo sapiens, UniProt P35236); assay: redox-dependent HePTP inhibition, mechanism study, biochemical, fluorescence (AID 2068); assay type: functional
T3 sequence (P35236 whole entry): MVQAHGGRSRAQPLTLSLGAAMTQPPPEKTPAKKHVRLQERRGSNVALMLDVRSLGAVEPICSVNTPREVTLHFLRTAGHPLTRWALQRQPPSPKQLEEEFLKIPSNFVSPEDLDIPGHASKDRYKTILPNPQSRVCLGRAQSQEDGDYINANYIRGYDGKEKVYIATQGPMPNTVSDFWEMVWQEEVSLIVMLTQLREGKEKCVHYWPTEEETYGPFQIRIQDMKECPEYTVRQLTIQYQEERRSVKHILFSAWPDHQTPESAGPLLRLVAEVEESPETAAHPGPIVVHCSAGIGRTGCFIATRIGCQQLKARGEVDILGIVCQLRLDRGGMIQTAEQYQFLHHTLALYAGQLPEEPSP

[9] = molecular target: T4, Dual specificity protein phosphatase 6 (Rattus norvegicus, UniProt Q64346); assay type: functional;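 also: confirmatory in vitro dose-response testing of MKP-3 inhibition; recombinant His-tagged MKP-3 made in E. coli BL21 with OMFP substrate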
T4 sequence (Q64346 whole entry): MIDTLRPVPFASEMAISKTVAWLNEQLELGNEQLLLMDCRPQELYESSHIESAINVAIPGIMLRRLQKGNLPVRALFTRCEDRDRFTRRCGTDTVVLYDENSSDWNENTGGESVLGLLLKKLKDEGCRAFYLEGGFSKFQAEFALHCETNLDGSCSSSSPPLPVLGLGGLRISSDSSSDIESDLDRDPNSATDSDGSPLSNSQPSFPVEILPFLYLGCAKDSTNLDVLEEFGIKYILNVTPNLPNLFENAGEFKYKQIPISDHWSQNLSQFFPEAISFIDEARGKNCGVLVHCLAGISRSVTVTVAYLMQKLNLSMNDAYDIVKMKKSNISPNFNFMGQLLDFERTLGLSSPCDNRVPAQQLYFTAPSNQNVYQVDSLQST

T2 sequence (P51452 whole entry): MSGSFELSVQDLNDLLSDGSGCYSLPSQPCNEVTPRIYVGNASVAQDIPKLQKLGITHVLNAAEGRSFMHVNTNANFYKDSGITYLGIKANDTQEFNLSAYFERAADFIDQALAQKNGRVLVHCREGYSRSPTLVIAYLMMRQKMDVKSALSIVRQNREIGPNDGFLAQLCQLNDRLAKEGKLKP
T1 sequence (P41145 whole entry): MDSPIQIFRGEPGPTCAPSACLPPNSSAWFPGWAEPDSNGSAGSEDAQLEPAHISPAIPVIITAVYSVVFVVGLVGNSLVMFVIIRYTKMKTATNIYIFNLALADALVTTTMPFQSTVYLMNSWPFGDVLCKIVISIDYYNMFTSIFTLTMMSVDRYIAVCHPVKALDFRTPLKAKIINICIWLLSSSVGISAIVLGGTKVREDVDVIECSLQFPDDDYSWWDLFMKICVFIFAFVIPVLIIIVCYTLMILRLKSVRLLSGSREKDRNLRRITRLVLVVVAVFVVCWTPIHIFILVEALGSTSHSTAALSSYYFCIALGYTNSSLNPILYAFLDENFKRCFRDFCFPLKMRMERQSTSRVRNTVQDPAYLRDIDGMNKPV
Chain of Delta-type opioid receptor (P41143 whole entry): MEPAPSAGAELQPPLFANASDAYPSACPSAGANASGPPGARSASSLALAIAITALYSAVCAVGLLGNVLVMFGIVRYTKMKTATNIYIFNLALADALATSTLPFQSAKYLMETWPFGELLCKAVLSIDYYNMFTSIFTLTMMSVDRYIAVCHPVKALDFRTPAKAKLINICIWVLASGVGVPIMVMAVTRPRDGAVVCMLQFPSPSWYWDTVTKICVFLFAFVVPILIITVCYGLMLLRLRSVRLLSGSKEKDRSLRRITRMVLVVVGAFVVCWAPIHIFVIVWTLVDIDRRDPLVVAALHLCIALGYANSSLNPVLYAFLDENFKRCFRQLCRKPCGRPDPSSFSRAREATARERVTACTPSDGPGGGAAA
Chain of Hexokinase (Q38C41 whole entry): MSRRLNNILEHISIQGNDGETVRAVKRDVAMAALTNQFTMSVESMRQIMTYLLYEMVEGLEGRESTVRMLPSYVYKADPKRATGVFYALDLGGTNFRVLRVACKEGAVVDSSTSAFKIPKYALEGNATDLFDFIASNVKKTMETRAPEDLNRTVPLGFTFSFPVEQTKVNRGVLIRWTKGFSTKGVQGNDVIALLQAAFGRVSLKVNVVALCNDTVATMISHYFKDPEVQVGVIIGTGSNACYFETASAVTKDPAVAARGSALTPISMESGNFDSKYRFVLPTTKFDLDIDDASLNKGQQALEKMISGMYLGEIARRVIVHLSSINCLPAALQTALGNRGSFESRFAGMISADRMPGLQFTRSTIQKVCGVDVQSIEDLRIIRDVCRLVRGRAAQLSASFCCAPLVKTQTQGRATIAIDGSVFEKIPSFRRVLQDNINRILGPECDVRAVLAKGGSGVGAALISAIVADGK
Chain of Mu-type opioid receptor (P35372 whole entry): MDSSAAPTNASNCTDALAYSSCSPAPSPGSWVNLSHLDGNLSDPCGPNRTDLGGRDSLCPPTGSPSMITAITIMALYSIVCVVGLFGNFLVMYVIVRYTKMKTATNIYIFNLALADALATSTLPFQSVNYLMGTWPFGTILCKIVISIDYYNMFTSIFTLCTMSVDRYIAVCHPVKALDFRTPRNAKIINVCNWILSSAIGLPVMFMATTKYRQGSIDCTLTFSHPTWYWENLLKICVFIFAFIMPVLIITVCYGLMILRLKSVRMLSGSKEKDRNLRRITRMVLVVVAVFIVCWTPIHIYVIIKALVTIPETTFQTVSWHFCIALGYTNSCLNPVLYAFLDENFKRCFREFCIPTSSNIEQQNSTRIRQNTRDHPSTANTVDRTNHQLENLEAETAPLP

## COc1ccc(S(=O)(=O)NCc2ccc(C(=O)NCCN(Cc3ccccc3)Cc3ccccc3)cc2)cc1
[1]
  IC50: > 32 µM (inactive)
[2]
  IC50: > 32 µM (inactive)
[3]
  IC50: > 20 µM (inactive)
[4]
  IC50: 13.1 µM (inactive)

## O=C(Nc1cc(Cl)ccc1C(=O)O)c1ccc2c(c1)OCO2
[5]
  IC50: 9.43 µM (active)

## O=C(NCc1ccccc1)c1cn(CCOc2ccccc2)c2ccccc12
[6]
  IC50: > 100 µM (inactive)
[7]
  IC50: > 100 µM (inactive)
[8]
  IC50: 44.1 µM (active)
[9]
  IC50: > 100 µM (inactive)
